These results are taken from publication doi:10.1101/2025.10.01.679885v1, “Kinetic and thermodynamic analysis of PKA-R–cAMP interactions in crude media using focal molography” (biorxiv, 2025).

Test [1] has as its target T1, PKA-R (bovine RIα 92-260; bRIα 92–260) (Bos taurus, UniProt P00514).
T1 construct: gene PRKAR1A; expressed in E. coli BL21 (DE3) RIL
Kind of test: biochemical. Further details: Focal molography, immobilised cAMP analogue, PKA-R as analyte; KD at 293 K from van't Hoff fit. Particulars: 293 K, van't Hoff fit. The text has this:
In this study, we use focal molography to investigate the interaction between the cAMP binding domain A of the bovine R subunit Iα of PKA (bRIα 92–260) (PKA-R) and cyclic AMP (cAMP) analogues in both buffer and 50% human serum. The R-subunit inhibits protein kinase activity of the catalytic subunit of PKA by direct binding. By quantifying kinetic and thermodynamic parameters across a physiological temperature range, we examine how the biological environment alters the enthalpic and entropic contributions to binding. […] In order to determine the kinetic parameters of the PKA-R–cAMP interaction, multi cycle kinetic experiments were conducted in both buffer and 50% human serum at 20^◦C with intermediate regeneration. […] The sensor maintained reliable performance in both conditions, with no evidence of non-specific binding in serum. During these experiments, optimal experimental settings were refined iteratively to achieve the ideal flow rates and best transition times between association and dissociation phase. […] To mitigate this, buffer A was supplemented with bovine serum albumin (BSA) at a concentration of 1 mg/mL, which successfully eliminated sample depletion. […] Fig 8 summarizes the resulting thermodynamic parameters calculated at 293 K (see S1 Table for data). For both ligands, binding to PKA-R remains highly favorable in both media, with ΔG values around −10 kcal/mol yielding similar affinities. However, the underlying driving forces appear to differ between buffer and serum. […] In contrast, the interaction in 50% serum becomes more enthalpy driven for both ligands. For 6-AH-cAMP, ΔH drops to −7.4 kcal/mol, while the entropic contribution increases to −2.6 kcal/mol. For 8-AHA-cAMP, the transition is even more striking: binding becomes entirely enthalpy driven in serum, with an unfavorable entropy change (−T ΔS = 1.2 kcal/mol) and a strong enthalpic contribution (ΔH = −11.3 kcal/mol). All thermodynamic parameters were extracted from the linear fits to the van’t Hoff plots via standard error propagation from the covariance matrix returned by the linear regression. Specifically, standard deviations for ΔH, ΔS, and ΔG were calculated using the variances and covariances of the fitted slope and intercept. The reported KD values represent the predicted equilibrium dissociation constants at 293 K based on the linear fits, with associated uncertainties derived from the propagated variance in ln(KD).

For test [2], the target named is T1, PKA-R (bovine RIα 92-260; bRIα 92–260). Nature of the test: biochemical. Particulars: 20 °C, mean of three replicates; for koff: read-out: koff [10^-2 s^-1]; for kon: read-out: kon [10^5 M^-1 s^-1]. The arrangement: focal molography, PKA-R binding to immobilized cAMP analogue, multi-cycle kinetics, 20 °C, buffer A or 50% human serum. On the procedure: In order to determine the kinetic parameters of the PKA-R–cAMP interaction, multi cycle kinetic experiments were conducted in both buffer and 50% human serum at 20^◦C with intermediate regeneration. […] The sensor maintained reliable performance in both conditions, with no evidence of non-specific binding in serum. During these experiments, optimal experimental settings were refined iteratively to achieve the ideal flow rates and best transition times between association and dissociation phase. […] To mitigate this, buffer A was supplemented with bovine serum albumin (BSA) at a concentration of 1 mg/mL, which successfully eliminated sample depletion. […] Nevertheless, subtle differences in the association rate constant (kon) and dissociation rate constant (koff) are evident between the two media. These variations likely stem from the complex biological environment in serum, where interactions with additional serum components may slightly alter the binding dynamics. To ensure that the extracted kinetic parameters accurately represent the specific PKA-R–cAMP interaction, only the initial 15% of the dissociation phase was used to determine koff, thereby minimizing the influence of incomplete dissociation due to the residual sticking of the protein to the surface. Table 2 summarizes the triplicate kinetic measurements for both 6-AH-cAMP and 8-AHA-cAMP in buffer and serum. The equilibrium dissociation constants (KD) remain in the nanomolar range under all conditions. In this study, we use focal molography to investigate the interaction between the cAMP binding domain A of the bovine R subunit Iα of PKA (bRIα 92–260) (PKA-R) and cyclic AMP (cAMP) analogues in both buffer and 50% human serum. The R-subunit inhibits protein kinase activity of the catalytic subunit of PKA by direct binding. By quantifying kinetic and thermodynamic parameters across a physiological temperature range, we examine how the biological environment alters the enthalpic and entropic contributions to binding.

The mark [3] stands for this setting: 50% human serum, read-out: KD [nM] Focal Mol. (Serum).
[4] abbreviates: buffer, read-out: KD [nM] Focal Mol. (Buffer).

Molecules are shown by their SMILES. Read-outs that look alike come from different tables or passages of the source.

T1 sequence (P00514 93-261): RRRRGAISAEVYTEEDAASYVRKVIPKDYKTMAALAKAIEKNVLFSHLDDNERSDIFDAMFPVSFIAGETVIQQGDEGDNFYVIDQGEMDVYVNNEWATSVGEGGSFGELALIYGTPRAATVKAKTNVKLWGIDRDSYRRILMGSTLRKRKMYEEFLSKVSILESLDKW

On to `NCCCCCCNc1ncnc2c1ncn2[C@@H]1O[C@@H]2COP(=O)(O)O[C@H]2[C@H]1O` [6-AH-cAMP, N^6-(6-Aminohexyl)adenosine-3^′,5^′-cyclic monophosphate], for which the Kd – broadly, the equilibrium constant for the complex coming apart – in test [1] (setting [3]) was found to be 36.6 ± 0.4 nM; in test [1] (setting [4]), 29.5 ± 0.9 nM; in test [2] (50% human serum), 25.4 nM. Moreover, the koff (in general, the rate constant with which the complex falls apart) in test [2] (50% human serum) was 0.0122 s⁻¹; in test [2] (buffer A) it was 0.013 s⁻¹. Besides, the kon – broadly, a measure of how fast the partners come together – in test [2] (50% human serum) came to 506000 M⁻¹ s⁻¹; in test [2] (buffer A), 448000 M⁻¹ s⁻¹.
In the case of `NCCCCCCNc1nc2c(N)ncnc2n1[C@@H]1O[C@@H]2COP(=O)(O)O[C@H]2[C@H]1O` [8-AHA-cAMP, 8-(6-Aminohexylamino)adenosine-3^′,5^′-cyclic monophosphate], the Kd was 31 ± 3.4 nM in test [1] (setting [3]), 25.5 ± 2.5 nM in test [1] (setting [4]) and 33.9 nM in test [2] (50% human serum). For the same molecule, the koff in test [2] (50% human serum) was 0.0165 s⁻¹; in test [2] (buffer A), 0.0129 s⁻¹. Further, the figures for the kon in test [2] (50% human serum) and in test [2] (buffer A) were 487000 M⁻¹ s⁻¹ and 389000 M⁻¹ s⁻¹, respectively.
